Where “and” joins values, the source holds several entries; their conditions need not be identical. Equal values may be shown once.
What follows are compounds tested against T1, Thromboxane A2 receptor (Mus musculus, UniProt P30987).
T1 sequence (P30987 whole entry): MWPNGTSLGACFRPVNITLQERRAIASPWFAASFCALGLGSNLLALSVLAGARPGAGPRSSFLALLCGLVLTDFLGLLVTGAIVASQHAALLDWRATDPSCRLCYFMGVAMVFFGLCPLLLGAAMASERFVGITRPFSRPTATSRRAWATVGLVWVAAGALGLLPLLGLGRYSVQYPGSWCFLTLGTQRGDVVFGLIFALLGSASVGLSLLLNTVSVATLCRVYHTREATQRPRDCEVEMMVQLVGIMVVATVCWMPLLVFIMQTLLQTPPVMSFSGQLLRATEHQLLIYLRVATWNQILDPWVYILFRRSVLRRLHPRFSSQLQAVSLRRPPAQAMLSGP
`CCCCC(C)(C)[C@H](O)/C=C/[C@@H]1[C@@H](C/C=C\CCCC(=O)O)[C@@H](O)C[C@H]1O` was tested, and the Ki was 0.77 µM. Work on `CCCCC[C@@H](O)/C=C/[C@H]1[C@H](O)CC(=O)[C@@H]1CCCCCCC(=O)O` yielded a Ki greater than 10 µM. With `COc1cc(CC2NCCc3cc(O)c(O)cc32)cc(OC)c1OC` (centres undefined) [1-(3,4,5-Trimethoxy-benzyl)-1,2,3,4-tetrahydro-isoquinoline-6,7-diol] the Ki was greater than 10 µM. In the case of `CCCCC[C@H](O)CC[C@H]1c2cc([nH]n2)[C@@H]1CC=CCCCC(=O)O` [9,11-AzoPGH2], the Ki is reported as 1.1 µM. `CCCCCC(O)C=CC1C2CCC(C2)C1CC=CCCCC(=O)O` (centres undefined) [9,11-ethano PGH2] gave a Ki of 0.44 µM. For `CCCCC[C@H](O)/C=C/[C@H]1C2OC2C(=O)[C@@H]1C/C=C\CCCC(=O)O` (stereo partly drawn) [10alpha,11alpha-oxido PGA2], the Ki was greater than 10 µM. `CCCCC[C@H](O)/C=C/[C@@H]1[C@@H](/C=C\CCCC(=O)O)[C@H]2CO[C@@H]1C2` [11,9-epoxymethano PGH2] gave a Ki of 0.36 µM. In the case of `CCCCC[C@H](O)/C=C/C1[C@H](O)C[C@H](O)[C@@H]1C/C=C\CCCC(=O)O` (stereo partly drawn) [(Z)-7-[(1R,3R,5S)-3,5-Dihydroxy-2-((E)-(S)-3-hydroxy-oct-1-enyl)-cyclopentyl]-hept-5-enoic acid], the Ki is reported as greater than 10 µM. `CCCCCC(O)CC=C1C(=O)C=CC1CC=CCCCC(=O)O` (centres undefined) [CAS_41598-07-6] showed a Ki greater than 10 µM. `CCCCC[C@H](O)/C=C/[C@H]1O[C@H]2C[C@H](O2)[C@@H]1C/C=C\CCCC(=O)O` [CAS_57576-52-0] showed a Ki of 1.3 µM. `CCCCC[C@@H](O)/C=C/[C@H]1C[C@H]2C[C@@H]([C@@H]1C/C=C\CCCC(=O)O)C2(C)C` [CAS_71111-01-8] showed a Ki of 1.4 µM. `CCCCC[C@H](O)/C=C/C1C[C@H]2C[C@H](C2)[C@@H]1C/C=C\CCCC(=O)O` (some centres undefined) [CAS_74034-56-3] showed a Ki of 1.5 µM. `O=C(O)CCCC=CCC1C(O)CC(O)C1C=CC(O)COc1ccc(F)cc1` (centres undefined) [CAS_188200] was tested, and the Ki was 0.32 µM. With `CCCCC[C@H](O)/C=C/[C@H]1[C@H](O)CC(=O)[C@@H]1C/C=C\CCCC(=O)O` [DINOPROSTONE] the Ki was greater than 10 µM. For `O=C(O)CCC/C=C/C[C@H]1C2C=CC(C2)[C@@H]1/C=C/[C@H](O)COc1ccc(F)cc1` (some centres undefined) [EP011], the Ki was 1.2 µM. In the case of `CCCCCC(C)(O)C=CC1C(O)CC(O)C1CC=CCCCC(=O)O` (centres undefined) [NSC_37255], the Ki is reported as greater than 10 µM. `O=C(O)CCCC=CCC1C2CCC(C2)C1C=NNC(=O)Nc1ccccc1` (centres undefined) [NSC_5311388] gave a Ki of 0.46 µM. For `CCCCC[C@H](O)/C=C/[C@@H]1[C@@H](C/C=C\CCCC(=O)O)[C@@H]2C[C@H]1OO2` [PGH2], the Ki was 0.2 µM and 1.6 µM. `CCCCC/C=C\C/C=C\C/C=C\C/C=C\CCCC(=O)O` [[1-14C]Arachidonic acid] was tested, and the Ki was greater than 10 µM.

— BindingDB's records for doi:10.1111/j.1476-5381.1983.tb10541.x (University of Edinburgh, 1983)
